US5162328A, “N-[3-[2-(1H-imidazol-1-yl)ethoxy]phenyl]-4-(2-thienyl)-2-pyrimidinamine and pharmacologically acceptable salts” (American Cyanamid Company, priority 1991, dated 1992)
Values joined by “and” are separate entries in the source; they are usually repeats but may differ in a detail not shown here. Equal values may be shown once.

System: passive cutaneous anaphylaxis lesions in the rat
Experiment: Rat Passive Cutaneous Anaphylaxis Assay (PCA)
Type: in vivo, rat (male Wistar strain)
Conditions: for Lesion Area (Low IgE) / Lesion Area (High IgE): mean ± SD
Experimental: Solutions made by dissolving 0.50 g in 100 ml of normal saline. Mouse monoclonal IgE (ICN Biochemicals) clone SPE-7 directed against DNP is subdivided into 50 ul aliquots and stored at -70° C. DNP-ovalbumin is made by reacting DNP sulfonic acid with ovalbumin dissolved in saline overnight at room temperature. The resulting solution is dialyzed extensively at 4 C to remove unreacted DNPsulfonic acid and stored as 1 mL aliquots of 100 mg/ml at -70° C. Male Wistar strain rats, certified viral free, weighing 250-300 g are obtained from Hilltop Laboratory Animals and housed, in accordance with AALAC standards, on site for at least one week before use. Forty-eight hours before challenge the rats are shaved on the dorsal surfaces and returned to the cages. Twenty-four hours before challenge the rats are given intradermal injections of 0.1 mL, one on each flank, of saline containing IgE at concentrations ranging from 1000 to 250 ng/mL. These injections give a local dose of 100 to 25 ng IgE. The IgE binds to specific receptors on mast cells in the skin. […] To the Evan's blue dye is added sufficient DNP-ovalbumin to make a 1 mg/ml solution. This allergen containing dye is injected intravenously via a tail vein into the rats at 10 ml/Kg. The Evans' blue binds to plasma albumin and remains in the vascular space under conditions of normal capillary permeability. The allergen, which can diffuse into the extravascular space, binds to the IgE on the surface of the cutaneous mast cells and initiates the immediate hypersensitivity response which leads to the release of histamine by intracellular granules of the mast cell. The histamine causes an increase in capillary permeability which allows plasma proteins including the dye tagged albumin to diffuse into the extracellular space resulting in a blue spot in the skin. The size of the lesion is proportional to the amounts of mediators released. This process reaches an optimum in 30 minutes. Thirty minutes after challenge the rats are euthanized by CO2. The skin is reflected from the back and the lesion areas estimated as the product of the largest diameter of the bluespot and the diameter perpendicular to it. A compound which is a mediator release inhibitor will reduce the spot area. The effectiveness of the compounds is determined by Analysis of Variance of the lesion areas grouped by IgE dose and compound. Compounds are considered active at the P<0.05 level. Table II contains the results of the experiments expressed as the areas of the lesions in mm^2. The control lesions for these experiments are also listed. Because more than one compound at a time is tested, some of the control values are repeated in the table. Table III contains the data expressed as a % of the appropriate control.

[1] = 0.5 mg/kg PO 2 hrs, IgE 50 ng/site

SMILES	Lesion Area (Low IgE) (0.5 mg/kg PO 2 hrs, IgE 25 ng/site, dihydrochloride)	Lesion Area (High IgE) [1] [mm^2]	Lesion Area (High IgE) (0.5 mg/kg PO 2 hrs, IgE 100 ng/site, dihydrochloride)	% CONTROL (lesion area) (0.5 mg/kg PO @ 2 hrs, dihydrochloride)	Lesion Area (Low IgE) (1.0 mg/kg PO 2 hrs, IgE 25 ng/site) [mm^2]	Lesion Area (High IgE) (1.0 mg/kg PO 2 hrs, IgE 50 ng/site) [mm^2]	% CONTROL (lesion area) (1 mg/kg PO @ 2 hrs) [%]	Lesion Area (Low IgE) (0.25 mg/kg PO 2 hrs, IgE 33 ng/site) [mm^2]	Lesion Area (High IgE) (0.25 mg/kg PO 2 hrs, IgE 50 ng/site) [mm^2]	% CONTROL (lesion area) (0.25 mg/kg PO @ 2 hrs) [%]	Lesion Area (Low IgE) (0.5 mg/kg PO 2 hrs, IgE 33 ng/site) [mm^2]	% CONTROL (lesion area) (0.5 mg/kg PO @ 2 hrs) [%]	Lesion Area (Low IgE) (2.5 mg/kg PO 2 hrs, IgE 25 ng/site) [mm^2]	Lesion Area (High IgE) (2.5 mg/kg PO 2 hrs, IgE 100 ng/site) [mm^2]	% CONTROL (lesion area) (2.5 mg/kg PO @ 2 hrs) [%]	activity in rat PCA test (in words) (compared with the two compounds of U.S. Pat. No. 4,788,195)
Cc1cc(Nc2nccc(-c3ccncc3)n2)ccc1N.Cl.Cl [Compound 2, 2-methyl-N^4-[4-(4-pyridinyl)-2-pyrimidinyl]-1,4-benzenediamine dihydrochloride, reference compound]	135 ± 20 mm^2 and 97 ± 7 mm^2 and 105 ± 12 mm^2	157 ± 15	217 ± 35 mm^2 and 362 ± 62 mm^2	113.6% and 74.6% and 81%	10 ± 15	123 ± 16	57.9	–	–	–	–	–	–	–	–	–
CCN(CC)CCOc1ccc(Nc2nccc(-c3ccncc3)n2)cc1.Cl.Cl [Compound 3, N-[4-[2-(diethylamino)ethoxy]phenyl]-4-(4-pyridinyl)-2-pyrimidinamine dihydrochloride, reference compound]	–	149 ± 22	–	–	–	–	–	108 ± 26	215 ± 24	45.1	68 ± 44	28.6	54 ± 38	105 ± 47	33.7	–
c1cc(Nc2nccc(-c3cccs3)n2)cc(OCCn2ccnc2)c1 [N-[3-[2-(1H-imidazol-1-yl)ethoxy]phenyl]-4-(2-thienyl)-2-pyrimidinamine]	–	–	–	–	–	–	–	–	–	–	–	–	–	–	–	essentially equivalent high activity
